Laboratory results published in patent US9987256B2, “CFTR corrector for the treatment of genetic disorders affecting striated muscle” (UNIVERSITA' DEGLI STUDI DI PADOVA, priority 2012, dated 2018).
Substitutions are numbered along the chain they refer to. Where a SMILES comes first, the peptide text is derived from it. The star is where a group is joined. Cbz = O=C(OCc1ccccc1)*

What was measured:
R164H mutant of SERCA1 = molecular target: T1, R164H mutant of SERCA1 (Bos taurus, UniProt Q0VCY0, R164H); assay: Western blot rescue of R164H mutant of SERCA1 in HEK293 cells; assay type: cell-based, bovine; settings: FIG. 3; HEK293, 24 hours; C 5 μM, B 10 μM, E 10 μM, F 10 μM, A 2 μM, D 10 μM; relative to wild type
T1 construct: expressed in transfected cells; host or cells: HEK 293
Procedure: In FIG. 3 are reported the results obtained with HEK 293 cells expressing the R164H mutant of SERCA1 treated for 24 hours with either Compound C 5 μM, Compound B 10 μM, Compound E 10 μM, compound F 10 μM, Compound A 2 μM, compound D 10 μM, MG132 (proteasome inhibitor) 10 μM, used as positive control or the vehicle DMSO at 1‰ concentration, used as negative control. At the end of treatments, cells were lysed and total protein resolved by SDS-PAGE. Western blotting analysis has been performed by using SERCA1 specific antibody and β-actin specific antibody, to normalize loaded proteins. In the upper panel of FIG. 3 is reported a representative Western blotting experiment. The expression of SERCA1 in different samples has been determined by densitometric analysis and indicated as percentage of SERCA 1 content present in wild type expressing cells treated with DMSO.
In FIG. 10 is reported the content of SERCA1 protein present in HEK 293 cells transfected with the R164H mutant of SERCA1 and treated for 24 hours with either Compound H 15 μM, Compound I 10 μM, compound Q 10 μM, Compound R 5 μM, Compound S 15 μM, Compound T 15 μM or the vehicle DMSO at 1‰ concentration, used as negative control. Cells expressing the wild type form of SERCA1 have also been used for comparison. At the end of treatments, cells were lysed and total protein resolved by SDS-PAGE. Western blotting analysis has been performed by using SERCA1 specific antibody and β-actin specific antibody, to normalize loaded proteins. The expression of SERCA1 in different samples has been determined by densitometric analysis and indicated as percentage of SERCA 1 content present in wild type expressing cells. The graph of FIG. 10 reports the average values (+/− standard error) of at least three independent experiments.

[1] = molecular target: T2, R98H mutant of alpha-sarcoglycan (Homo sapiens, UniProt Q16586, R98H); assay: Western blot rescue of R98H mutant of alpha-sarcoglycan in HEK293 cell model; assay type: cell-based; settings: FIG. 1; HEK293, 24 hours; C 5 μM, B 10 μM, E 10 μM, F 10 μM, A 2 μM, D 10 μM; relative to R98H cells treated with DMSO
T2 construct: expressed in transfected cells; host or cells: HEK293
T2 sequence (Q16586 24-387 R98H): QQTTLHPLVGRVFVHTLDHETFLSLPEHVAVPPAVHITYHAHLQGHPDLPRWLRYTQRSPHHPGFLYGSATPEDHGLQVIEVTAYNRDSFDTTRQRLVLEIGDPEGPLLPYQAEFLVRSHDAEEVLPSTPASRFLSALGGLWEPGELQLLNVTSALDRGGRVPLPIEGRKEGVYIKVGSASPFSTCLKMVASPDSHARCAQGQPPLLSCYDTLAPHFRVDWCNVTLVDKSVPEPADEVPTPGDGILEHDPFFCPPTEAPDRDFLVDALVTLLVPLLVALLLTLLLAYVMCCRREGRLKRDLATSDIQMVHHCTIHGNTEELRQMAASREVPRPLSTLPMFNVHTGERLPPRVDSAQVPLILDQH
Procedure: HEK293 cells expressing different α-SG mutants have been treated with the Compounds A, B, C, D, E, F, H, I, Q, R, S and T according to protocols developed in CF studies [Loo and Clarke 2011; Becq et al 2011, Pedemonte et al 2005; Wang et al 2006]. Concentration and time-dependent recovery of treated mutants have been evaluated by Western blotting. The proteasome inhibitor MG132, at the concentration of 10 μM, or DMSO at 1‰ concentration, have been used as positive and negative control, respectively.
In FIG. 1 the result obtained by treating cells expressing the R98H mutant of α-SG for 24 hours with Compound C 5 μM, Compound B 10 μM, Compound E 10 μM, Compound F 10 μM, Compound A 2 μM, Compound D 10 μM are shown. At the end of treatments, cells were lysed and total proteins resolved by SDS-PAGE. Western blotting has been performed by using α-SG specific antibody and β-actin specific antibody, used to normalize loaded proteins (in FIG. 1, upper panel, a representative experiment is shown). The expression of α-SG in different samples has been determined by densitometric analysis of the western blotting experiments and indicated as percentage of the protein present in cells expressing the R98H mutant treated with DMSO (negative control).
In FIG. 4 the result obtained by treating cells expressing the R98H mutant of α-SG for 24 hours with either Compound H 15 μM, Compound I 10 μM, Compound T 15 μM, Compound A 2 μM, or DMSO at 1‰ concentration, used as negative control, are shown. Cells expressing the wild type form of α-sarcoglycan have been used for comparison. At the end of treatments, cells were lysed and total proteins resolved by SDS-PAGE. Western blotting has been performed by using α-SG specific antibody and β-actin specific antibody, used to normalize loaded proteins (in upper panel of FIG. 4, a representative experiment is shown). The expression of α-SG in different samples has been determined by densitometric analysis of the western blotting experiments and indicated as percentage of the protein present in cells expressing the wild type form of α-sarcoglycan. […] The compounds tested induced the recovery of the R98H mutant to levels that in some cases were even greater than those present in HEK cells expressing the wild type protein.
(§1) In FIG. 5 the result obtained by treating cells expressing the R98H mutant of α-SG for 24 hours with either increasing concentration of Compound R (1, 2.5, 5 μM) or DMSO at 1‰ concentration, used as negative control, are shown. Cells expressing the wild type form of α-sarcoglycan have been used for comparison. At the end of treatments, cells were lysed and total proteins resolved by SDS-PAGE. Western blotting has been performed by using α-SG specific antibody and β-actin specific antibody, used to normalize loaded proteins (in upper panel of FIG. 5, a representative experiment is shown). The expression of α-SG in different samples has been determined by densitometric analysis of western blotting experiments and indicated as percentage of the protein present in cells expressing the wild type form of α-sarcoglycan.
as §1, with “6” for “5”, “Q (5, 10 μM), increasing concentration of Compound S (10, 15” for “R (1, 2.5, 5”, “1% o” for “1‰”, “6,” for “5,”

[2] = molecular target: T3, V247M mutant of alpha-sarcoglycan (Homo sapiens, UniProt Q16586, V247M); assay: Confocal immunofluorescence, membrane localization of V247M alpha-sarcoglycan in HEK293 cells; assay type: cell-based; settings: FIG. 2; HEK293, 24 hours; E 10 μM, D 10 μM, MG132 positive control; not permeabilized cells
T3 construct: expressed in transfected cells; host or cells: HEK 293
T3 sequence (Q16586 24-387 V247M): T2 sequence (Q16586 24-387 R98H) with H75R, V224M
Procedure: The cellular localization of either the V247M or R98H mutants, upon corrector treatments, has been verified by confocal immunofluorescence.
In the experiment reported in FIG. 2, HEK 293 cells expressing the V247M mutant have been treated for 24 hours with either Compound E (10 μM) or Compound D (10 μM), MG132 (positive control) or DMSO at 1‰ concentration (negative control). At the end of treatments, not permeabilized cells were incubated with a monoclonal antibody specific for an extracellular epitope of α-sarcoglycan in order to mark only the membrane resident α-sarcoglycan. By comparison, cells expressing the wild type form of α-sarcoglycan have also been used.

D307H CASQ2 mutant = settings: CASQ2 D307H/D307H knock in mouse, systemic administration; cited from earlier work

T1 sequence (Q0VCY0 whole entry R164H): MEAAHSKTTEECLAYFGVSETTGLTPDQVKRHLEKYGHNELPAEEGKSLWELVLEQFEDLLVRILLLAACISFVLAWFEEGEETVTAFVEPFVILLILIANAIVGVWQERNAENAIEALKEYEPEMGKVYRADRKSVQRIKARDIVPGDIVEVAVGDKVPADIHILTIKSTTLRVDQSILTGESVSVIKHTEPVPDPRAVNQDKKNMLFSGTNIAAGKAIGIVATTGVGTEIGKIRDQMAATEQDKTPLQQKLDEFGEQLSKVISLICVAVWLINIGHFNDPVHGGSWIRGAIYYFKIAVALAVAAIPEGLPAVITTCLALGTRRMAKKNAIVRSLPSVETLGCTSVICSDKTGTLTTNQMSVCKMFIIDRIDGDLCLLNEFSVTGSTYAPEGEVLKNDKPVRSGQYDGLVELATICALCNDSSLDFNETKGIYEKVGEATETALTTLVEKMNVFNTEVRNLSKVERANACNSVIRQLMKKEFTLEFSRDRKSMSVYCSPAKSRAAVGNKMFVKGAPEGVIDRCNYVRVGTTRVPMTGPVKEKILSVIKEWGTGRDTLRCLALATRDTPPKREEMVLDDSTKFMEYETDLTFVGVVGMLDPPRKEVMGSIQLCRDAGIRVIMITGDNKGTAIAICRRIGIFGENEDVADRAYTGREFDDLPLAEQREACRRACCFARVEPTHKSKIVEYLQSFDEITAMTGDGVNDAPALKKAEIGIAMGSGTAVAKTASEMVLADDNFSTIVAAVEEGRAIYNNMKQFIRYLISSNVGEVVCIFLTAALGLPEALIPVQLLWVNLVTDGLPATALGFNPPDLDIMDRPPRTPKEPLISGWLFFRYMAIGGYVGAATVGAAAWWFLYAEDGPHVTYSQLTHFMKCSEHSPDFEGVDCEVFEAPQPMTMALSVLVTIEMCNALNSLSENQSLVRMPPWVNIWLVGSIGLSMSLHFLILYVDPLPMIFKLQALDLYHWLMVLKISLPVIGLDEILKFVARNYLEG

For `CC(c1nc(N2CCCCC2)c2ccccc2n1)N1CCN(S(=O)(=O)c2ccc(Cl)cc2)CC1` (stereo not shown) [Compound C, 2-{1-[4-(4-Chloro-benzensulfonyl)-piperazin-1-yl]ethyl}-4-piperidin-1-yl-quinazoline], the “SERCA1 protein level (western blot, densitometry), rescue of R164H mutant” value (“SERCA1 protein level” below) (R164H mutant of SERCA1) was “promote the rescue” and the “alpha-sarcoglycan protein level (western blot, densitometry), rescue of R98H mutant” value (from here on “alpha-sarcoglycan protein level”) [1] was “promote the rescue”.
With `CC(C)C[C@@H](C=O)NC(=O)[C@H](CC(C)C)NC(=O)[C@H](CC(C)C)NC(=O)OCc1ccccc1` [MG132, reference compound] (Cbz-Leu-Leu-Leu-aldehyde) the “plasma membrane localization of V247M alpha-sarcoglycan mutant” value [2] was “promoted V247M membrane localization”.
For `CC(C)C[C@H](NC(=O)[C@H](Cc1ccccc1)NC(=O)c1cnccn1)B(O)O` [Velcade, bortezomib], the “cardiac arrhythmia developed as consequence of CASQ2 mutant degradation” value (D307H CASQ2 mutant) is listed as “can be counteracted” and the “partial rescue of the mutant CASQ2, increase over not treated mice” value (D307H CASQ2 mutant) is listed as 20%.
For `O=C(Nc1ncc(C(c2ccccc2Cl)N2CC[C@@H](O)C2)s1)C1(c2ccc3c(c2)OCO3)CC1` (stereo in doubt) [Compound D, 1-(benzo[d][1,3]dioxol-5-yl)-N-(5-((S)-(2-chlorophenyl) ((R)-3-hydroxypyrrolidin-1-yl)methyl)thiazol-2-yl)cyclopropanecarboxamide], the “SERCA1 protein level” value (R164H mutant of SERCA1) was “promote the rescue”, the “alpha-sarcoglycan protein level” value [1] was “promote the rescue” and the “plasma membrane localization of V247M alpha-sarcoglycan mutant” value [2] was “promoted the correct plasma membrane localization”.
For `COc1ccc(S(=O)(=O)N2CCN(C(C)c3nc(OC4CCCCC4)c4ccccc4n3)CC2)cc1` (stereo not shown) [Compound B, 4-Cyclohexyloxy-2-{1-[4-(4-methoxy-benzensulfonyl)-piperazin-1-yl]-ethyl}-quinazoline], the “SERCA1 protein level” value (R164H mutant of SERCA1) was “promote the rescue” and the “alpha-sarcoglycan protein level” value [1] was “promote the rescue”.
